From patent publication US20250162973A1, “METHODS OF SYNTHESIS AND USES OF AGRIMOL COMPOUNDS” (Versitech Limited, priority 2022, published 2025)

Columns and labels:
NCI-H460 cells = experiment: Wound healing assay (cell migration); format: cell-based, human
Method: For wound healing assay in the present study, the cells were grown to approximately 80% confluence in 12-well plates in the complete growth medium and then a straight line was scraped at the central part of the each well by a 200 μL pipette tip. […] […] Each condition was performed in triplicate.

[1] = tested on: cancer stem cells (NCI-H460 tumorspheres); experiment: MTT assay on tumorspheres (cancer stem cells); format: cell-based; settings: Homo sapiens, 72-h treatment
Method: For IC50 determination of sphere, similar procedures were performed as mentioned above. Briefly, cells were plated in 96-well clear flat bottom ultra-low attachment cell culture plates (Corning®) with a density of 5*10^3 cells into each well with specific sphere formation medium (DMEM/F12 medium supplemented with 20 ng/mL EGF, 20 ng/mL bFGF, 2% B27). The cells were then treated with AGB at different concentrations, ranging from 0.3 to 100 μM. After 3 days of treatment, the formed tumorspheres in each well were monitored under microscope. The MTT was then applied to determine the cell viability and the cell viability of AGB-treatment group was calculated via normalization to control groups and the IC50 value was calculated from the plot curve that fitted to a Boltzmann sigmoidal function.

HSP60 = HSP60 (Homo sapiens, UniProt P10809); experiment: CETSA / ITDRFCETSA immunoblot; format: binding; design: dose dependent recovery of soluble HSP60 in cells subjected to heating; endogenous in cells; host or cells: NCI-H460; settings: CETSA melt curve, NCI-H460 cells
HSP60, sequence (P10809 27-573): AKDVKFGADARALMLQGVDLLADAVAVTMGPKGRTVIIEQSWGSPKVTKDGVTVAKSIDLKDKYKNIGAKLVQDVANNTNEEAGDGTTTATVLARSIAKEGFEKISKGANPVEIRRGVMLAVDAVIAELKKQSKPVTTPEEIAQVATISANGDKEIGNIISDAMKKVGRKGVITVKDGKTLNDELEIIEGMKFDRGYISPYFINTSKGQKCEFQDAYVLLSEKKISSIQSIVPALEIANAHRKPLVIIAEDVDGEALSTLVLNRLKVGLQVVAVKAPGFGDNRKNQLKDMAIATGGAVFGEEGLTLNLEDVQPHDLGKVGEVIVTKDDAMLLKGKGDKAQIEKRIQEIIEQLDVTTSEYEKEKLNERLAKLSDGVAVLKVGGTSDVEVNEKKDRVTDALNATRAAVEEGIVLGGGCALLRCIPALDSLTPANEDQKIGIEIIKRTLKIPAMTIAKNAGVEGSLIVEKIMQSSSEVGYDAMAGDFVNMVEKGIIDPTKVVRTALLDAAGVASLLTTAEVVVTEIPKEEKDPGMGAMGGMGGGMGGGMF
Method: Immunoblot experiments were carried out for validating of the three identified potential targets. […] In the isothermal dose-response fingerprint (ITDRFCETSA) experiment, treatment of cells with increasing concentrations of AGB led to dose dependent recovery of soluble HSP60 in cells subjected to heating at protein denaturation temperature at 60° C.

[2] = tested on: mitochondria of NCI-H460 cells; experiment: Mitochondrial morphology and fusion/fission proteins (MitoTracker, Western Blot, immunofluorescence, TEM); format: cell-based, human
Text: Mitochondria are highly dynamic organelles that frequently fuse and fragment, with the ability to change size, shape, and position. The dynamic nature of mitochondria is important for mitochondrial inheritance and for the maintenance of mitochondrial functions. When the balance between fission and fusion is disrupted, as result of a relative increase or decrease in either process, the overall mitochondrial morphology is changed markedly.
Several proteins that control mitochondrial fusion and fission have been identified, including mitofusins and OPA1 for fusion, and Mff and DRP1 for fission. The effects of AGB on the expression of mitochondrial fusion proteins (Mfn1 and Mfn2) and fission proteins (DRP1 and Mff) were studied. […] DRP1 phosphorylation at residue S637 by protein kinase A inhibits mitochondrial fission whereas dephosphorylation at S637 increases mitochondrial recruitment of DRP1 and promotes mitochondrial fission. The localization of DRP1 was examined by the immunofluorescence staining.
OPA1 is another protein localized at the inner mitochondrial membrane and is involved in different function like regulation of mitochondrial morphology dynamics, maintenance of respiratory chain, and control of ATP synthesis. The decrease of L-OPA1 causes inhibition of mitochondrial fusion, whereas the accumulation of S-OPA1 facilitates mitochondrial fission. […] OPA1 plays a role in maintaining the mitochondrial cristae structure. OPA1 fragmentation leads to a disorganization of the structure of the mitochondrial inner membrane. The ultrastructure of mitochondria was observed under transmission electron microscopy (TEM) with the treatment of AGB or vehicle for 16 h.

[3] = tested on: ER stress in NCI-H460 cells; experiment: ER stress (ER tracker staining, Western Blot of markers); format: cell-based, human
Text: The disruption of Golgi structure leads to impaired glycosylation processes, resulting in misfolded proteins which would accumulate to induce ER stress. The relationship between AGB and ER stress in cancer cells was examined. The morphology of ER was disrupted and the content was lessened using ER tracker staining (images not shown). In order to verify that NCI-H460 cells developed ER stress response when treated with AGB, the expression of two ER stress markers, Glucose-regulated protein (GRP) 78 (GRP78) and C/-EBP homologous protein (CHOP), was examined. GAPDH was used as a loading control. […] Generally, there are three sensors to initiate ER stress responses, including IRE1, PERK and ATF6. Upon the accumulation of unfolded proteins, BiP preferentially binds to the unfolded proteins, which results in the release of PERK, IRE1, and ATF6. Once released from BiP, PERK becomes activated and dimerized. Activated PERK phosphorylates eIF2α to suppress the overall […] of mRNAs.

Hsp60 client Mito-RFP = experiment: Mito-RFP / EGFP fluorescence in transfected cells; format: cell-based
[4] = Hematological examination in MTD test; format: in vivo; settings: 12.8 mg/kg, day 14
Method: The MTD test in this study was done in collaboration with Tianjin Institute of Pharmaceutical Research (TIPR). […] A total of 80 mice were randomly assigned into four groups (10 male and 10 female mice in each group) in this study. Four groups included 16.0 mg/kg of AGB group, 12.8 mg/kg of AGB group, vehicle control group (10% DMSO+0.8% Tween-80 in normal saline), and the blank control group (normal saline).
Then, the body weights of surviving animals were measured on the 1st, 3rd, 7th and 14th days, respectively. At the end of experiment, the hematology, blood biochemistry, anatomical examination, and histopathology examination were performed in both vehicle control group and the MTD group (12.8 mg/kg). The data were presented as the mean±standard deviation.

CCCC(=O)c1c(O)c(Cc2c(O)c(Cc3c(O)c(C)c(OC)c(C(=O)CCC)c3O)c(O)c(C(=O)[C@@H](C)CC)c2O)c(O)c(C)c1OC [AGB, Agrimol B]
width of the scratch wound (NCI-H460 cells; 1 μM of AGB): significantly decreased
wound closure (NCI-H460 cells; 4 μM or 10 μM of AGB, 16 h and 32 h): wound closure was inhibited
concentration giving significant reduction of cell migration (NCI-H460 cells; wound healing assay): around 4 μM
IC50 [1]: 4 µM
increase in the protein melting temperature (Tm) vs DMSO control (HSP60): 3.2 °C
morphology of mitochondria (MitoTracker Green) ([2]; 4 μM AGB, 0-16 h): gradually changed into significant punctuated structures
ultrastructure of mitochondria (TEM) ([2]; 16 h treatment): circular vesicles of reduced diameter predominated
expression of DRP1 and Mff ([2]; Western Blot): did not alter
phosphor-DRP1 (Ser637) ([2]; Western Blot): significant decrease
OPA1 cleavage from L-OPA1 into S-OPA1 ([2]; Western Blot, dose and time dependent): promoted OPA1 cleavage
expression of Mfn1 and Mfn2 ([2]; Western Blot, dose-dependent): slightly decreased
translocation of DRP1 from cytoplasm into mitochondria ([2]; immunostaining, mito-RFP-transfected cells): significantly promoted
phosphorylation status of eIF2α ([3]; AGB-treated NCI-H460): eIF2α was phosphorylated
morphology of ER ([3]; ER tracker staining): disrupted
expression of ER stress markers GRP78 and CHOP ([3]; Western Blot, time-dependent): significantly increased
EGFP fluorescence (Hsp60 client Mito-RFP; cells transfected with EGFP-expressing construct): did not show changes in fluorescence
mitochondrial fluorescence (Mito-RFP) vs vehicle (Hsp60 client Mito-RFP; cells transfected with Mito-RFP): significant reduction of mitochondrial fluorescence
E (eosinophils) [4]: 0.29 ± 0.11 ×10^9/L
E(%) [4]: 5.48 ± 1.64%
HCT [4]: 47.54 ± 2.21%
HGB [4]: 138.20 ± 9.38 g/L
L (lymphocytes) [4]: 4.22 ± 1.32 ×10^9/L
L(%) [4]: 77.53 ± 2.05%
M (monocytes) [4]: 0.09 ± 0.03 ×10^9/L
M(%) [4]: 1.64 ± 0.46%
MCH [4]: 15.20 ± 0.97 pg
MCHC [4]: 291.00 ± 20.17 g/L
MCV [4]: 52.25 ± 2.16 fL
N (neutrophils) [4]: 0.78 ± 0.28 ×10^9/L
N(%) [4]: 14.24 ± 2.15%
PLT [4]: 1733.80 ± 371.53 ×10^9/L
RBC [4]: 9.11 ± 0.45 ×10^12/L
Ret [4]: 0.81 ± 0.09 ×10^12/L
Ret(%) [4]: 8.83 ± 0.74%
WBC [4]: 5.44 ± 1.66 ×10^9/L
